Results on 1 compound are retold here after patent US7067482B2, “Cross-linked glycopeptide-cephalosporin antibiotics” (Theravance, Inc., priority 2003, dated 2006).

Converted amounts (≈) assume the structure as drawn.

In experiment [1] the test system is MRSA 33591. In words: Time-kill assay. In kind it is cell-based, Staphylococcus aureus. Particulars: in 24 hours; bactericidal = >=3 log decrease in bacterial cell numbers. The procedure: This time-kill assay is a method for measuring the rate of bactericidal activity of a test compound. These procedures are similar to those described in V. Lorian, “Antibiotics in Laboratory Medicine”, Fourth Edition, Williams and Wilkins (1996), pages 104–105. A rapid time-kill is desirable to quickly prevent bacterial colonization and reduce host tissue damage.
Bacterial inocula were prepared as described in Example 6 for determination of MIC. Bacteria were diluted in prewarmed media in shake flasks and incubated with shaking (200 rpm, 35° C.). At 0, 1, 4, and 24 hours samples were withdrawn from the flasks and bacteria were enumerated by plate counting. Subsequent to the initial sampling, a test compound to be assayed was added to the shake flask culture. Plate counts at these intervals previous to and following addition of the compound were expressed graphically in a time-kill curve. Bactericidal activity is defined as a greater than or equal to 3 log decrease (reduction greater than or equal to 99.9%) in bacterial cell numbers by 24 hours.
By comparison, vancomycin was bactericidal against MRSA 33591 at a concentration of 4 μg/mL in 24 hours.

Experiment [2] deals with methicillin-susceptible Staphylococcus aureus (MSSA 13709) and methicillin-resistant Staphylococcus aureus (MRSA 33591). The experiment in a line: In vivo efficacy studies in neutropenic mice (thigh infection). To be noted: iv, 24 h, read-out: ED50 (dose required to produce 50% of the maximum reduction in thigh titre).
In experiment [3] the test system is MRSA 33591. The experiment in a line: Minimal inhibitory concentration (MIC), broth microdilution, MRSA 33591. To be noted: Staphylococcus aureus, read-out: MIC MRSA 33591. In general terms: In broth dilution the organism is exposed to a series of concentrations in liquid medium.
In another experiment the test system is MSSA 13709. The experiment in a line: Minimal inhibitory concentration (MIC), broth microdilution, MSSA 13709. To be noted: Staphylococcus aureus, read-out: MIC MSSA 13709.

One may read the ED50 as the dose at which the effect has come halfway, by size or by number of responders. As usually defined, the MIC is the smallest concentration in the dilution series that meets the test's criterion for growth inhibition. Regarding `CN[C@H](CC(C)C)C(=O)N[C@H]1C(=O)N[C@@H](CC(N)=O)C(=O)N[C@H]2C(=O)N[C@H]3C(=O)N[C@H](C(=O)N[C@H](C(=O)O)c4cc(O)cc(O)c4-c4cc3ccc4O)[C@H](O)c3ccc(c(Cl)c3)Oc3cc2cc(c3O[C@@H]2O[C@H](CO)[C@@H](O)[C@H](O)[C@H]2O[C@H]2C[C@](C)(N)[C@H](O)[C@H](C)O2)Oc2ccc(cc2Cl)[C@H]1O` [Vancomycin, vancomycin], the “concentration at which bactericidal” value in the experiment on MRSA 33591 [1] was found to be 4 µg/mL. Also, the ED50 in experiment [2] was found to be 9 mg/kg. Besides, the MIC in the experiment on MRSA 33591 [3] was determined as 2 µg/mL (≈ 1.38 µM); in the experiment with MSSA 13709, 1 µg/mL (≈ 0.69 µM).
